Assay [1] addresses T1, Lysine-specific demethylase 4C (Homo sapiens, UniProt Q9H3R0).
T1 sequence (Q9H3R0 whole entry): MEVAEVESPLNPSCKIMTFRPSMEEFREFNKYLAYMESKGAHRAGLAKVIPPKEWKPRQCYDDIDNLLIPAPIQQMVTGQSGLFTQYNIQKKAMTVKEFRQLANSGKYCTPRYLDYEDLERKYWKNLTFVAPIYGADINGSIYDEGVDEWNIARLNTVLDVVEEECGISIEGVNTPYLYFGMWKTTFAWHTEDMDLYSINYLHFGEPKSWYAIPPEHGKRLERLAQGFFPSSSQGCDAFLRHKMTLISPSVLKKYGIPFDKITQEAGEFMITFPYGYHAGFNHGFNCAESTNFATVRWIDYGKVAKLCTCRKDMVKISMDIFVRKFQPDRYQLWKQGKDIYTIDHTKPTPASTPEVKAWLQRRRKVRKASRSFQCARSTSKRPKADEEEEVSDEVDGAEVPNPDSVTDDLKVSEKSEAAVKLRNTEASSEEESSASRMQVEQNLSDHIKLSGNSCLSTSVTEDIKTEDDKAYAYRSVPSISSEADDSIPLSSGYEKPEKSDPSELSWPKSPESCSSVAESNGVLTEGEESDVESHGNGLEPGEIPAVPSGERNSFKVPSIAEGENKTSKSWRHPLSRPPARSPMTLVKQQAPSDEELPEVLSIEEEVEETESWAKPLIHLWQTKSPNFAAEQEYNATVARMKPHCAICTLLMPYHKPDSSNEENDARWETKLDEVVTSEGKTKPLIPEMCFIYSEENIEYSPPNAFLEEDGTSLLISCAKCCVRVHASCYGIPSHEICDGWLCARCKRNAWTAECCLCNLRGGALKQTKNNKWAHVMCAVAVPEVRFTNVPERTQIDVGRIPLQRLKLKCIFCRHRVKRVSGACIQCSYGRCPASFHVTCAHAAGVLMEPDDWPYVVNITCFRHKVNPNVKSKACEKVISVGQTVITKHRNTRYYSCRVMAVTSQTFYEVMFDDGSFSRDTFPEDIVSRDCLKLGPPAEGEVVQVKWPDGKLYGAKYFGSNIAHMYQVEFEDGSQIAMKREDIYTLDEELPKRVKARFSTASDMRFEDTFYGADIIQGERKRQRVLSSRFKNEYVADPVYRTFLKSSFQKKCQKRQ
Description: Inhibition of KDM4C (unknown origin) using H3K9me3 as substrate after 24 hrs by alphascreen assay. For orientation: Alpha assays give light when donor and acceptor beads are brought close together.

Assay [2] addresses Lysine-specific demethylase 5B (Homo sapiens, UniProt Q9UGL1). Description: Inhibition of KDM5B in human U2OS cells assessed as reduction in demethylation of H3K4me3 after 20 hrs by Hoechst 33342 staining based immunofluorescence assay. The class given is cell-based.
Assay [3] deals with Lysine-specific demethylase 4E (Homo sapiens, UniProt B2RXH2). Description: Inhibition of KDM4E (unknown origin) preincubated for 15 mins followed by histone substrate addition measured after 1 hr by alphascreen assay.
Lysine-specific demethylase 4E, sequence (B2RXH2 whole entry): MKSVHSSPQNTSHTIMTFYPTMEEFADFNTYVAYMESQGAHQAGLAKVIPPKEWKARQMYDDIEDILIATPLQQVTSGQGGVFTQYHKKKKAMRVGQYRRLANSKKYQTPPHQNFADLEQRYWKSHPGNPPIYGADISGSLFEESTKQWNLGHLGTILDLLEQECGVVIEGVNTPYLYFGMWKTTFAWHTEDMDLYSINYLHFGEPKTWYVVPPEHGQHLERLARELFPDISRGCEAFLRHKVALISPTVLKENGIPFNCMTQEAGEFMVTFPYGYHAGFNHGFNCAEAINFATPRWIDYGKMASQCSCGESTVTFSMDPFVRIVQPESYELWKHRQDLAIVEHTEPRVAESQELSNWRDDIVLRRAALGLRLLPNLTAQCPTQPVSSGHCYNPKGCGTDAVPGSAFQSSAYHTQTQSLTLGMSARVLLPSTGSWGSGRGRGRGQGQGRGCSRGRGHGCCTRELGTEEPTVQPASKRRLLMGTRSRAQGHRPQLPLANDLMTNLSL
For assay [4], the target named is T1, Lysine-specific demethylase 4C. Description: Inhibition of KDM4C (unknown origin) preincubated for 15 mins followed by histone substrate addition measured after 1 hr by alphascreen assay.
Assay [5] can be described thus: Inhibition of FIH (unknown origin) using ankyrin peptide substrate preincubated for 5 mins followed by substrate addition measured after 5 mins MALDI-TOF mass spectrometric analysis. The arrangement: species or system Homo sapiens.

Lysine-specific demethylase 5B, sequence (Q9UGL1 whole entry): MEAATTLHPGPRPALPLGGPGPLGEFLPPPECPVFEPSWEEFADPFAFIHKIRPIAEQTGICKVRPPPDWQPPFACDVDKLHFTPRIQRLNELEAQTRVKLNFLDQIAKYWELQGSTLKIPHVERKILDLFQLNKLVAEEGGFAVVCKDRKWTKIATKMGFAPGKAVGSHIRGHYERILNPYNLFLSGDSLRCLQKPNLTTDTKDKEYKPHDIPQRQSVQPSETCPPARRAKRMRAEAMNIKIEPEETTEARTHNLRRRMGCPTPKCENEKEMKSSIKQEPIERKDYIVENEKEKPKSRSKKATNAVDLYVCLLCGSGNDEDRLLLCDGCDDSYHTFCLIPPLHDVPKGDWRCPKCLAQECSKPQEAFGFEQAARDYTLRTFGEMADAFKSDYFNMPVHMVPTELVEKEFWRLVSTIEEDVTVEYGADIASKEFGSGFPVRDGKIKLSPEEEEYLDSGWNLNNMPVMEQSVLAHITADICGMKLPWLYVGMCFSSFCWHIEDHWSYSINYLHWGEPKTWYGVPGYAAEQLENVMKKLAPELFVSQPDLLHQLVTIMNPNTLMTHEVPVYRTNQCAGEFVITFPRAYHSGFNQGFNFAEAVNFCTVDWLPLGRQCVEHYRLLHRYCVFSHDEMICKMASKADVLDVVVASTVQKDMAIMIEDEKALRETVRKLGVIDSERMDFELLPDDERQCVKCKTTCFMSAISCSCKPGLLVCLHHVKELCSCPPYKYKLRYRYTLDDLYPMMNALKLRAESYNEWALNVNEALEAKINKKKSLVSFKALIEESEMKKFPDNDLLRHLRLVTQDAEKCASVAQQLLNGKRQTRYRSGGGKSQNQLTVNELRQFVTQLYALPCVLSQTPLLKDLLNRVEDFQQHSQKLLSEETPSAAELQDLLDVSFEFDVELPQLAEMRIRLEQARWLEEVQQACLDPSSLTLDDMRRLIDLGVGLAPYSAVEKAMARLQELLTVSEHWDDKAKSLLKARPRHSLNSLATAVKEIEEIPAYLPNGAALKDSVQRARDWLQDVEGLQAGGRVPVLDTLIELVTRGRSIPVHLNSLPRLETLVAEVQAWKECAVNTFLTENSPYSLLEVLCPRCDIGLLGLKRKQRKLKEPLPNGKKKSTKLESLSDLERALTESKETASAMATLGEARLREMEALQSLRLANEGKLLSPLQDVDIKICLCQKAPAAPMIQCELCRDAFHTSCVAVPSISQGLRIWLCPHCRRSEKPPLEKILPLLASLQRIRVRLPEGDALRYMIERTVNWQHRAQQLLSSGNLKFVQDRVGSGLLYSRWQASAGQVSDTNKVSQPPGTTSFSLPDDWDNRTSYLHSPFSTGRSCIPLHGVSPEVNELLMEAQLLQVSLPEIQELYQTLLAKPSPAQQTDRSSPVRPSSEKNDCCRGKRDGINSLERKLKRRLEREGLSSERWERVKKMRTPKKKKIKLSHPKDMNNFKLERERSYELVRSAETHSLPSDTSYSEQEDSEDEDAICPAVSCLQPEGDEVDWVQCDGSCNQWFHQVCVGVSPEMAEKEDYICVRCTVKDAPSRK

For `CCCCCCCCOC(=O)c1ccc(O)c2ncccc12`, in assay [1], the 50% inhibitory concentration (IC50) (in general, the concentration needed to halve the response being measured) is 3.9 µM.
Take `CCN(CCN(C)C)C(=O)CNCc1cc(C(=O)O)ccn1`: the 50% inhibitory concentration (IC50) in assay [2] is 1 µM.
Regarding `Cc1ccsc1C(NC(=O)c1ccccc1)c1cc(Cl)c2cccnc2c1O` (racemic), the values for the concentration for half-maximal inhibition (IC50) in assay [3], in assay [4] and in assay [5] were 5 µM, 5 µM and > 100 µM, respectively.

For the origin of these results see ChEMBL document CHEMBL3784917, “Recent Progress in Histone Demethylase Inhibitors” (J Med Chem, 2016).
